Tests used:
[1] = 101 kPa, Liquid; for viscosity: Capillary tube (Ostwald / Ubbelohde) method; for mass density: Vibrating tube method
[2] = xn = mol fraction of the nth substance listed; conditions: 101 kPa, Liquid; for viscosity: Capillary tube (Ostwald / Ubbelohde) method; for mass density: Vibrating tube method

OCCO [1,2-ethanediol]
[1]
Conditions	mass density [kg/m3]	viscosity [mPa·s]
298.15 K	–	16.87
303.15 K	1106	13.59
308.15 K	–	11.34

OCCO [1,2-ethanediol] + CC(O)CO
[2], x1 = 1
Conditions	mass density [kg/m3]	viscosity [mPa·s]
298.15 K	–	16.87
303.15 K	1106	13.59
308.15 K	–	11.34

OCCO [1,2-ethanediol] + OCCCO
[2], x1 = 1
Conditions	mass density [kg/m3]	viscosity [mPa·s]
298.15 K	–	16.87
303.15 K	1106	13.59
308.15 K	–	11.34

CC(O)CO (stereo not given) [1,2-propanediol]
[1]
Conditions	mass density [kg/m3]	viscosity [mPa·s]
298.15 K	1032.7	44.78
303.15 K	1028.8	33.75
308.15 K	1025.2	27

CC(O)CO (stereo not given) [1,2-propanediol] + OCCCO
[2], x1 = 1
Conditions	mass density [kg/m3]	viscosity [mPa·s]
298.15 K	1032.7	44.78
303.15 K	1028.8	33.75
308.15 K	1025.2	27

CC(O)CO (stereo not given) [1,2-propanediol] + OCCO
[2]
Conditions	mass density, 298.15 K [kg/m3]	mass density, 303.15 K [kg/m3]	mass density, 308.15 K [kg/m3]	viscosity, 298.15 K [mPa·s]	viscosity, 303.15 K [mPa·s]	viscosity, 308.15 K [mPa·s]
x2 = 0	1032.7	1028.8	1025.2	44.78	33.75	27
x2 = 0.1208	1041	1036.9	1033.3	42.41	32.1	25.65
x2 = 0.2353	1048.6	1044.6	1041	40.03	30.14	24.13
x2 = 0.3454	1056.1	1052.1	1048.5	37.28	28.08	22.51
x2 = 0.4345	1062.3	1058.4	1054.7	34.74	26.24	21.05
x2 = 0.5508	1070.8	1066.9	1063.4	31.35	23.8	19.11
x2 = 0.6303	1077	1073.1	1069.5	28.91	22.06	17.78
x2 = 0.7473	1086.6	1082.7	1079.2	25.33	19.52	15.82
x2 = 0.8302	1093.7	1089.8	1086.4	22.72	17.62	14.39
x2 = 0.9065	1100.6	1096.8	1093.4	20.16	15.86	13.07

OCCCO [propan-1,3-diol]
[1]
Conditions	mass density [kg/m3]	viscosity [mPa·s]
298.15 K	1049.6	41.36
303.15 K	1046.2	32.78
308.15 K	1043.1	26.34

OCCCO [propan-1,3-diol] + CC(O)CO
[2]
Conditions	mass density, 298.15 K [kg/m3]	mass density, 303.15 K [kg/m3]	mass density, 308.15 K [kg/m3]	viscosity, 298.15 K [mPa·s]	viscosity, 303.15 K [mPa·s]	viscosity, 308.15 K [mPa·s]
x2 = 0	1049.6	1046.2	1043.1	41.36	32.78	26.34
x2 = 0.1002	1049.1	1046	1043	41.77	32.93	26.45
x2 = 0.2105	1048.3	1045.6	1042.8	42.23	33.12	26.56
x2 = 0.2994	1047.8	1045.1	1042.2	42.59	33.26	26.66
x2 = 0.4088	1046.9	1044.1	1041	43.02	33.43	26.75
x2 = 0.5002	1045.9	1043	1039.9	43.38	33.56	26.84
x2 = 0.5937	1044.7	1041.7	1038.5	43.73	33.66	26.91
x2 = 0.7125	1042.6	–	–	44.08	33.73	26.94
x2 = 0.7126	–	1039.3	1036	–	–	–
x2 = 0.7996	1040.2	1036.7	1033.5	44.31	33.75	26.96
x2 = 0.9217	1036.5	1033	1029.7	44.62	33.76	26.99

OCCCO [propan-1,3-diol] + OCCO
[2]
Conditions	mass density, 298.15 K [kg/m3]	mass density, 303.15 K [kg/m3]	mass density, 308.15 K [kg/m3]	viscosity, 298.15 K [mPa·s]	viscosity, 303.15 K [mPa·s]	viscosity, 308.15 K [mPa·s]
x2 = 0	1049.6	1046.2	1043.1	41.36	32.78	26.34
x2 = 0.1107	1055.3	1051.7	1048.5	39.55	31.2	24.94
x2 = 0.2024	1060.1	1056.5	1053.1	37.7	29.75	23.7
x2 = 0.3597	1069.3	1065.7	1061.9	34.33	26.96	21.43
x2 = 0.4617	1075.7	1072	1068.1	31.96	25.06	19.91
x2 = 0.551	1081.4	1077.6	1073.6	29.75	23.32	18.56
x2 = 0.6258	1086.2	1082.3	1078.3	27.76	21.77	17.39
x2 = 0.7354	1093.1	1089.2	1085.2	24.77	19.45	15.66
x2 = 0.8285	1099.1	1095.2	1091.1	22.09	17.39	14.15
x2 = 0.9105	1104.5	1100.7	1096.5	19.62	15.64	12.82
